In patent publication US20210290765A1, “SURFACTANTS FOR HEALTHCARE PRODUCTS” (AdvanSix Resins & Chemicals LLC, priority 2020, published 2021):

Columns and labels:
Type in all cases: physicochemical
[1] = Wetting properties: contact angle on solid substrates, optical contact angle goniometer; settings: 10x CMC
Source text: Surface-active compounds may also be assessed by their wetting ability on solid substrates as measured by the contact angle. When a liquid droplet comes in contact with a solid surface in a third medium, such as air, a three-phase line forms among the liquid, the gas and the solid. The angle between the surface tension unit vector, acting at the three-phase line and tangent at the liquid droplet, and the surface is described as the contact angle. The contact angle (also known as wetting angle) is a measure of the wettability of a solid by a liquid. In the case of complete wetting, the liquid is completely spread over the solid and the contact angle is 0°. Wetting properties are typically measured for a given compound at the concentration of 1-100×CMC, however, it is not a property that is concentration-dependent therefore measurements of wetting properties can be measured at concentrations that are higher or lower.
In one method, an optical contact angle goniometer may be used to measure the contact angle. This device uses a digital camera and software to extract the contact angle by analyze the contour shape of a sessile droplet of liquid on a surface.
(§1) Nuclear magnetic resonance (NMR) spectroscopy was performed on a Bruker 500 MHz spectrometer. The critical micelle concentration (CMC) was determined by the Wilhelmy plate method at 23° C. with a tensiometer (DCAT 11, DataPhysics Instruments GmbH) equipped with a Pt—Ir plate. Dynamic surface tension was determined with a bubble pressure tensiometer (Krüss BP100, Krüss GmbH), at 23° C. Contact angle was determined with the optical contact angle goniometer (OCA 15 Pro, DataPhysics GmbH) equipped with a digital camera.

[2] = Critical micelle concentration (CMC) and surface tension versus concentration in water, Wilhelmy plate method; settings: for plateau value of minimum surface tension that can be reached / surface tension at the CMC (from the plot) / critical micelle concentration (CMC): 23° C.; for plateau value of minimum surface tension that can be reached / surface tension at the CMC (from the plot): pH=7; for critical micelle concentration (CMC): pH=7, Wilhelmy plate
Source text: These properties may be measured and described by various methods. One method by which surfactants may be described is by the molecule's critical micelle concentration (CMC). CMC may be defined as the concentration of a surfactant at which micelles form, and above which all additional surfactant is incorporated into micelles.
As surfactant concentration increases, surface tension decreases. Once the surface is completely overlaid with surfactant molecules, micelles begin to form. This point represents the CMC, as well as the minimum surface tension. Further addition of surfactant will not further affect the surface tension. CMC may therefore be measured by observing the change in surface tension as a function of surfactant concentration. One such method for measuring this value is the Wilhemy plate method. A Wilhelmy plate is usually a thin iridium-platinum plate attached to a balance by a wire and placed perpendicularly to the air-liquid interface. The balance is used to measure the force exerted on the plate by wetting. This value is then used to calculate the surface tension (γ) according to Equation 1: […]
wherein I is equal to the wetted perimeter (2w+2d, in which w and d are the plate thickness and width, respectively) and cos θ, the contact angle between the liquid and the plate, is assumed to be 0 in the absence of an extant literature value.
as §1

[3] = Dynamic surface tension, bubble pressure tensiometer
Source text: Another parameter used to assess the performance of surfactants is dynamic surface tension. The dynamic surface tension is the value of the surface tension for a particular surface or interface age. In the case of liquids with added surfactants, this can differ from the equilibrium value. Immediately after a surface is produced, the surface tension is equal to that of the pure liquid. As described above, surfactants reduce surface tension; therefore, the surface tension drops until an equilibrium value is reached. The time required for equilibrium to be reached depends on the diffusion rate and the adsorption rate of the surfactant.
One method by which dynamic surface tension is measured relies upon a bubble pressure tensiometer. This device measures the maximum internal pressure of a gas bubble that is formed in a liquid by means of a capillary. The measured value corresponds to the surface tension at a certain surface age, the time from the start of the bubble formation to the occurrence of the pressure maximum. The dependence of surface tension on surface age can be measured by varying the speed at which bubbles are produced.
as §1

[4] = substrate Polyethylene terephthalate
[5] = surface age 1 ms, air-water interface, 23° C.

SMILES | CA of Surfactant (contact angle) ([1]; substrate Nylon) [°] | CA of Surfactant (contact angle) [1, 4] [°] | CA of Surfactant (contact angle) ([1]; substrate Polyethylene-HD) [°] | CA of Surfactant (contact angle) ([1]; substrate Teflon) [°] | plateau value of minimum surface tension that can be reached [2] | surface tension at the CMC (from the plot) [2] | critical micelle concentration (CMC) [2] | dynamic surface tension [3, 5] | time in which the compound fully saturated the surface ([3]; air-water interface, 23° C.) | also measured
CCCCCCCCCCCCOC(=O)CCCCCN(C)C.Cl [Surfactant 3, 6-(dodecyloxy)-N,N-dimethyl-6-oxohexan-1-aminium chloride] | 15 | 18.3 | 42.5 | 66.6 | about 30 mN/m | ≤ 30 mN/m | about 1.4 mmol | about 50 mN/m |  | surface tension ([2]; at a concentration of 2.7 mmol or greater): ≤ 33 mN/m; dynamic surface tension ([3]; surface age 100 ms, air-water interface, 23° C.): about 40 mN/m; dynamic surface tension ([3]; surface age 50,000 ms, air-water interface, 23° C.): about 34 mN/m
CCCCCCCCCCCCOC(=O)CCCCCN.Cl [Surfactant 5, 6-(dodecyloxy)-6-oxohexan-1-aminium chloride] | 18.2 | 15.3 | 16.6 | 39.3 | about 23 mN/m | about 23 mN/m | about 0.75 mmol |  | approximately 1.5 seconds | surface tension ([2]; at a concentration of 0.7 mmol or greater): ≤ 23.2 mN/m; dynamic surface tension ([3]; surface age of 3185 ms or greater): ≤ 28.5 mN/m
CCCCCCCCCCCCOC(=O)CCCCC[N+](C)(C)CCCCS(=O)(=O)[O-] [Surfactant 4, 4-((6-(dodecyloxy)-6-oxohexyl)dimethylammonio)butane-1-sulfonate] | 25.7 | 35.6 | 46.5 | 62.7 | about 38 mN/m | about 38 mN/m | about 0.1 mmol |  | approximately 1 seconds | surface tension ([2]; at a concentration of 1 mmol or greater): ≤ 37 mN/m; dynamic surface tension ([3]; surface age of 4000 ms or greater): ≤ 40.5 mN/m
CCCCCCCCCCCCOC(=O)CCCCC[N+](C)(C)C.[I-] [Surfactant 1, 6-(dodecyloxy)-N,N,N-trimethyl-6-oxohexan-1-aminium iodide] | 31.5 | 38.4 | 32 | 67.1 | about 33 mN/m | about 34 mN/m | about 1 mmol | about 55.5 mN/m |  | surface tension ([2]; at a concentration of 1.0 mmol or greater): about 33.8 mN/m; dynamic surface tension ([3]; surface age 75 ms, air-water interface, 23° C.): about 39.9 mN/m; dynamic surface tension ([3]; surface age 50,410 ms, air-water interface, 23° C.): about 34 mN/m
CCCCCCCCCCCCOC(=O)CCCCC[N+](C)(C)[O-] [Surfactant 2, dodecyl 6-(dimethylamino)hexanoate N-oxide] | 21.7 | 24.5 | 39.3 | 57.4 | about 28 mN/m | ≤ 30 mN/m | about 0.08 mmol |  | approximately 7.6 seconds | surface tension ([2]; at a concentration of 0.08 mmol or greater): ≤ 30 mN/m; dynamic surface tension ([3]; surface age of 4900 ms or greater): ≤ 40 mN/m
